Experimental data reported in patent US8461305B2, “L-fucose α1→6 specific lectin” (J-Oil Mills, Inc., priority 2008, dated 2013).
Blank lines part the entries; values can stand above or below the substance they belong to.

Assay: frontal affinity chromatography (FAC), association constant to PA sugar chains without L-fucose
Assay type: binding
Details: for binding to sugar chain not having L-fucose: FAC; for association constant Ka: 25 degrees C.
How it was run: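 Lectin coupled via primary amines to NHS-activated sepharose in a miniature column, run in TBS (pH 7.4) at 0.125 ml/min and 25 degrees C. PA sugar chains (3.75 nM or 7.5 nM) applied in excess, with elution monitored by fluorescence (ex 310/em 380 nm). Ka calculated from front-end delay (V−Vo) versus PA rhamnose and effective ligand amount (Bt).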

[1] = Sugar chain No. 728 (as listed in Table 7)

binding to sugar chain not having L-fucose: not bound
Substance: Pholiota terrestris lectin [PTL, novel L-fucose α1→6 specific lectin purified from the mushroom Pholiota terrestris]
association constant Ka (Sugar chain No. 001): <1000 M⁻¹ | association constant Ka (Sugar chain No. 002): <1000 M⁻¹ | association constant Ka (Sugar chain No. 003): <1000 M⁻¹ | association constant Ka (Sugar chain No. 004): <1000 M⁻¹ | association constant Ka (Sugar chain No. 005): <1000 M⁻¹ | association constant Ka (Sugar chain No. 006): <1000 M⁻¹ | association constant Ka (Sugar chain No. 007): <1000 M⁻¹ | association constant Ka (Sugar chain No. 008): <1000 M⁻¹ | association constant Ka (Sugar chain No. 009): <1000 M⁻¹ | association constant Ka (Sugar chain No. 010): <1000 M⁻¹ | association constant Ka (Sugar chain No. 011): <1000 M⁻¹ | association constant Ka (Sugar chain No. 012): <1000 M⁻¹ | association constant Ka (Sugar chain No. 013): <1000 M⁻¹ | association constant Ka (Sugar chain No. 014): <1000 M⁻¹ | association constant Ka (Sugar chain No. 101): <1000 M⁻¹ | association constant Ka (Sugar chain No. 103): <1000 M⁻¹ | association constant Ka (Sugar chain No. 104): <1000 M⁻¹ | association constant Ka (Sugar chain No. 105): <1000 M⁻¹ | association constant Ka (Sugar chain No. 107): <1000 M⁻¹ | association constant Ka (Sugar chain No. 108): <1000 M⁻¹ | association constant Ka (Sugar chain No. 301): <1000 M⁻¹ | association constant Ka (Sugar chain No. 304): <1000 M⁻¹ | association constant Ka (Sugar chain No. 305): <1000 M⁻¹ | association constant Ka (Sugar chain No. 307): <1000 M⁻¹ | association constant Ka (Sugar chain No. 308): <1000 M⁻¹ | association constant Ka (Sugar chain No. 313): <1000 M⁻¹ | association constant Ka (Sugar chain No. 314): <1000 M⁻¹ | association constant Ka (Sugar chain No. 323): <1000 M⁻¹ | association constant Ka (Sugar chain No. 501): <1000 M⁻¹ | association constant Ka (Sugar chain No. 502): <1000 M⁻¹ | association constant Ka (Sugar chain No. 503): <1000 M⁻¹ | association constant Ka (Sugar chain No. 504): <1000 M⁻¹ | association constant Ka (Sugar chain No. 701): <1000 M⁻¹ | association constant Ka (Sugar chain No. 702): <1000 M⁻¹ | association constant Ka (Sugar chain No. 703): <1000 M⁻¹ | association constant Ka (Sugar chain No. 704): <1000 M⁻¹ | association constant Ka (Sugar chain No. 705): <1000 M⁻¹ | association constant Ka (Sugar chain No. 706): <1000 M⁻¹ | association constant Ka (Sugar chain No. 707): <1000 M⁻¹ | association constant Ka (Sugar chain No. 708): <1000 M⁻¹ | association constant Ka (Sugar chain No. 709): <1000 M⁻¹ | association constant Ka (Sugar chain No. 710): <1000 M⁻¹ | association constant Ka (Sugar chain No. 711): <1000 M⁻¹ | association constant Ka (Sugar chain No. 712): <1000 M⁻¹ | association constant Ka (Sugar chain No. 713): <1000 M⁻¹ | association constant Ka (Sugar chain No. 715): <1000 M⁻¹ | association constant Ka (Sugar chain No. 716): <1000 M⁻¹ | association constant Ka (Sugar chain No. 717): <1000 M⁻¹ | association constant Ka (Sugar chain No. 724): <1000 M⁻¹ | association constant Ka (Sugar chain No. 725): <1000 M⁻¹ | association constant Ka [1]: <1000 M⁻¹ | association constant Ka (Sugar chain No. 732): <1000 M⁻¹ | association constant Ka (Sugar chain No. 733): <1000 M⁻¹ | association constant Ka (Sugar chain No. 734): <1000 M⁻¹ | association constant Ka (Sugar chain No. 735): <1000 M⁻¹ | association constant Ka (Sugar chain No. 736): <1000 M⁻¹ | association constant Ka (Sugar chain No. 737): <1000 M⁻¹ | association constant Ka (Sugar chain No. 738): <1000 M⁻¹ | association constant Ka (Sugar chain No. 901): <1000 M⁻¹ | association constant Ka (Sugar chain No. 902): <1000 M⁻¹ | association constant Ka (Sugar chain No. 903): <1000 M⁻¹ | association constant Ka (Sugar chain No. 905): <1000 M⁻¹ | association constant Ka (Sugar chain No. 906): <1000 M⁻¹ | association constant Ka (Sugar chain No. 907): <1000 M⁻¹

Substance: Stropharia rugosoannulata lectin [SRL, novel L-fucose α1→6 specific lectin purified from the mushroom Stropharia rugosoannulata]
binding to sugar chain not having L-fucose: not bound | association constant Ka (Sugar chain No. 001): <1000 M⁻¹ | association constant Ka (Sugar chain No. 002): <1000 M⁻¹ | association constant Ka (Sugar chain No. 003): <1000 M⁻¹ | association constant Ka (Sugar chain No. 004): <1000 M⁻¹ | association constant Ka (Sugar chain No. 005): <1000 M⁻¹ | association constant Ka (Sugar chain No. 006): <1000 M⁻¹ | association constant Ka (Sugar chain No. 007): <1000 M⁻¹ | association constant Ka (Sugar chain No. 008): <1000 M⁻¹ | association constant Ka (Sugar chain No. 009): <1000 M⁻¹ | association constant Ka (Sugar chain No. 010): <1000 M⁻¹ | association constant Ka (Sugar chain No. 011): <1000 M⁻¹ | association constant Ka (Sugar chain No. 012): <1000 M⁻¹ | association constant Ka (Sugar chain No. 013): <1000 M⁻¹ | association constant Ka (Sugar chain No. 014): <1000 M⁻¹ | association constant Ka (Sugar chain No. 101): <1000 M⁻¹ | association constant Ka (Sugar chain No. 103): <1000 M⁻¹ | association constant Ka (Sugar chain No. 104): <1000 M⁻¹ | association constant Ka (Sugar chain No. 105): <1000 M⁻¹ | association constant Ka (Sugar chain No. 107): <1000 M⁻¹ | association constant Ka (Sugar chain No. 108): <1000 M⁻¹ | association constant Ka (Sugar chain No. 301): <1000 M⁻¹ | association constant Ka (Sugar chain No. 304): <1000 M⁻¹ | association constant Ka (Sugar chain No. 305): <1000 M⁻¹ | association constant Ka (Sugar chain No. 307): <1000 M⁻¹ | association constant Ka (Sugar chain No. 308): <1000 M⁻¹ | association constant Ka (Sugar chain No. 313): <1000 M⁻¹ | association constant Ka (Sugar chain No. 314): <1000 M⁻¹ | association constant Ka (Sugar chain No. 323): <1000 M⁻¹ | association constant Ka (Sugar chain No. 501): <1000 M⁻¹ | association constant Ka (Sugar chain No. 502): <1000 M⁻¹ | association constant Ka (Sugar chain No. 503): <1000 M⁻¹ | association constant Ka (Sugar chain No. 504): <1000 M⁻¹ | association constant Ka (Sugar chain No. 701): <1000 M⁻¹ | association constant Ka (Sugar chain No. 702): <1000 M⁻¹ | association constant Ka (Sugar chain No. 703): <1000 M⁻¹ | association constant Ka (Sugar chain No. 704): <1000 M⁻¹ | association constant Ka (Sugar chain No. 705): <1000 M⁻¹ | association constant Ka (Sugar chain No. 706): <1000 M⁻¹ | association constant Ka (Sugar chain No. 707): <1000 M⁻¹ | association constant Ka (Sugar chain No. 708): <1000 M⁻¹ | association constant Ka (Sugar chain No. 709): <1000 M⁻¹ | association constant Ka (Sugar chain No. 710): <1000 M⁻¹ | association constant Ka (Sugar chain No. 711): <1000 M⁻¹ | association constant Ka (Sugar chain No. 712): <1000 M⁻¹ | association constant Ka (Sugar chain No. 713): <1000 M⁻¹ | association constant Ka (Sugar chain No. 715): <1000 M⁻¹ | association constant Ka (Sugar chain No. 716): <1000 M⁻¹ | association constant Ka (Sugar chain No. 717): <1000 M⁻¹ | association constant Ka (Sugar chain No. 724): <1000 M⁻¹ | association constant Ka (Sugar chain No. 725): <1000 M⁻¹ | association constant Ka [1]: <1000 M⁻¹ | association constant Ka (Sugar chain No. 732): <1000 M⁻¹ | association constant Ka (Sugar chain No. 733): <1000 M⁻¹ | association constant Ka (Sugar chain No. 734): <1000 M⁻¹ | association constant Ka (Sugar chain No. 735): <1000 M⁻¹ | association constant Ka (Sugar chain No. 736): <1000 M⁻¹ | association constant Ka (Sugar chain No. 737): <1000 M⁻¹ | association constant Ka (Sugar chain No. 738): <1000 M⁻¹ | association constant Ka (Sugar chain No. 901): <1000 M⁻¹ | association constant Ka (Sugar chain No. 902): <1000 M⁻¹ | association constant Ka (Sugar chain No. 903): <1000 M⁻¹ | association constant Ka (Sugar chain No. 905): <1000 M⁻¹ | association constant Ka (Sugar chain No. 906): <1000 M⁻¹ | association constant Ka (Sugar chain No. 907): <1000 M⁻¹
